Measurements reported in patent publication US20230331803A1, “CO-AGONISTS OF THE GLP-1 AND AMYLIN RECEPTORS” (priority 2020, published 2023).
Where two headings read alike, the source gives them in different places.

Assays:
human GLP-1 receptor = target: T1, human GLP-1 receptor (Homo sapiens, UniProt P43220); assay: Human GLP-1 receptor in vitro potency assay (CRE-luciferase reporter, BHK cells); type: cell-based
T1 construct: expressed in transfected cells; host or cells: BHK (Baby Hamster Kidney) cells, clone BHK 467-12A KZ-10, stably transfected, with CRE-luciferase reporter
Experimental: It is thus possible to measure GLP-1 receptor activity using a CRE-luciferase reporter gene introduced into Baby Hamster Kidney (BHK) cells co-expressing the GLP-1 receptor.
(§1) Cells were aliquoted and stored at -180° C. until use.
Plates were sealed and incubated at room temperature with gentle shaking for 30 minutes while protected from light. Luminescence was detected on a luminescence plate reader e.g. a Synergy 2 (BioTek).

[1] = target: T2, human amylin receptor (hAmyR3) (Homo sapiens, UniProt O60896+P30988); assay: Human amylin receptor in vitro potency assay (CRE-luciferase reporter, BHK cells); type: cell-based;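 also: BHK cells expressing human calcitonin receptor plus RAMP3 (amylin-3 receptor) with a CRE-luciferase reporter, agonist activity read as luminescence from cAMP-driven transcription, 7-point serial dilutions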
T2 construct: host or cells: BHK cells (Hollex-1 line: human calcitonin receptor (a) + CRE-Luc), further transfected with human RAMP3
T2 sequence (P30988 25-474): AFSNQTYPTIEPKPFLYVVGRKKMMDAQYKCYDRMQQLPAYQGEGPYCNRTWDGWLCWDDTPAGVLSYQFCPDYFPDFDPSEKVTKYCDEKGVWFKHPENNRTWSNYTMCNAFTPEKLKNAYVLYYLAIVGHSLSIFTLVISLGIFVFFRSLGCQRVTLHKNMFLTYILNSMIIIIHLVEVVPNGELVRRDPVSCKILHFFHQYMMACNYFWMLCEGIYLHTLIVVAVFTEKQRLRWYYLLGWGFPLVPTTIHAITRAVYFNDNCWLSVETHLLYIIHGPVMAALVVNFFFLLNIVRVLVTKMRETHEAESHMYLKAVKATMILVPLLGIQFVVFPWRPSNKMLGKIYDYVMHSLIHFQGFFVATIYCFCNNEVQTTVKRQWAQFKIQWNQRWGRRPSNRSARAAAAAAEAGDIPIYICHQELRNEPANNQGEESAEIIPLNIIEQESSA
T2 sequence (O60896 24-148): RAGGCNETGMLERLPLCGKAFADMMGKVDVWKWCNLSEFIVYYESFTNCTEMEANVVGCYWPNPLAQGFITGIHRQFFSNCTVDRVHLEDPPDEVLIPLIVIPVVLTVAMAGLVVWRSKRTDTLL
Text: Activation of hAmyR3 leads to increased cellular concentrations of cAMP. Consequently, transcription is activated by promotors containing multiple copies of the cAMP response element (CRE). It is thus possible to measure hAmyR3 activity using a CRE-luciferase reporter gene introduced into Baby Hamster Kidney (BHK) cells co-expressing the hAmyR3.
The cell line was further transfected with human receptor modifying protein 3 (RAMP3) using standard methods. This turns the human calcitonin receptor into a human amylin-3(a) receptor.
as §1
The plate was incubated over night at 37° C. in 5% CO2. On the day of the assay, cells were washed three times in assay buffer. Serial dilutions (7-fold dilutions, 7 concentrations pr. compound and one well containing only assay buffer) of comparator compounds and GLP-1 receptor-amylin receptor co-agonists were performed in assay buffer often starting from approximately 10-100 nM in 96-well plates and 30 µL of each concentration added to the 384-well assay plate with cells. […] The assay plate was sealed, incubated at room temperature with gentle shaking for 5 minutes followed by 30 minutes incubation without shaking while protected from light. Luminescence was detected on a luminescence plate reader e.g. a Synergy 2 (BioTek).

T1 sequence (P43220 24-463): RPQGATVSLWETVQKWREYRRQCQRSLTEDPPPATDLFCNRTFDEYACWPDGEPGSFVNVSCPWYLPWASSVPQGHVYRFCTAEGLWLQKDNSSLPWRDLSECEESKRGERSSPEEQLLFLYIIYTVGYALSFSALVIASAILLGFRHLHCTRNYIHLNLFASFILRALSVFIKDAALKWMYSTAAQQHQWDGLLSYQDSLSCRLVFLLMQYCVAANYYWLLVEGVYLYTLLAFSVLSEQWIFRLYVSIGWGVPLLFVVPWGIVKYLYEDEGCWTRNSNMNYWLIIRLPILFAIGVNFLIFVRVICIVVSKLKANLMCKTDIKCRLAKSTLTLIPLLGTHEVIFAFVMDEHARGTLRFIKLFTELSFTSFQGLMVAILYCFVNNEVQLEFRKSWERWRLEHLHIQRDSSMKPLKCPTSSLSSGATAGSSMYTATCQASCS

Structure (SMILES)	EC50 (human GLP-1 receptor) [pM]	EC50 [1] [pM]	EC50 (human GLP-1 receptor; Table 4a, BHK cells expressing human GLP-1R, CRE-Luc, 3 hours, read-out: Human GLP-1R potency [EC50 (pM)]) [pM]	EC50 ([1]; Table 4a, BHK hAmyR3/CRE-Luc cells, 3 hours, read-out: Human AmyR3 potency [EC50 (pM)]) [pM]
CC[C@H](C)[C@H](NC(=O)[C@H](Cc1ccccc1)NC(=O)[C@H](CCC(=O)O)NC(=O)[C@H](CCCCNC(=O)COCCOCCNC(=O)COCCOCCNC(=O)CC[C@H](NC(=O)CCCCCCCCCCCCCCCCC(=O)O)C(=O)O)NC(=O)[C@H](C)NC(=O)[C@H](C)NC(=O)[C@H](CCC(N)=O)NC(=O)CNC(=O)[C@H](CCC(=O)O)NC(=O)[C@H](CC(C)C)NC(=O)[C@H](Cc1ccc(O)cc1)NC(=O)[C@H](CO)NC(=O)[C@H](CO)NC(=O)[C@@H](NC(=O)[C@H](CC(=O)O)NC(=O)[C@H](CO)NC(=O)[C@@H](NC(=O)[C@H](Cc1ccccc1)NC(=O)[C@@H](NC(=O)CNC(=O)[C@H](CCC(=O)O)NC(=O)C(C)(C)NC(=O)[C@@H](N)Cc1c[nH]cn1)[C@@H](C)O)[C@@H](C)O)C(C)C)C(=O)N[C@@H](C)C(=O)N[C@@H](Cc1c[nH]c2ccccc12)C(=O)N[C@@H](CC(C)C)C(=O)N[C@H](C(=O)N[C@@H](CCCNC(=N)N)C(=O)NCC(=O)N[C@@H](CCCNC(=N)N)C(=O)NCC(=O)N[C@@H](CCCCNC(=O)COCCOCCNC(=O)COCCOCCNC(=O)CC[C@H](NC(=O)CCCCCCCCCCCCCCCCC(=O)O)C(=O)O)C(=O)N[C@@H](CCC(N)=O)C(=O)N[C@@H](CCC(=O)O)C(=O)N1CCC[C@H]1C(=O)NCC(=O)N[C@@H](CCC(N)=O)C(=O)N[C@@H](CCC(=O)O)C(=O)N1CCC[C@H]1C(=O)N[C@@H](CCC(=O)O)C(=O)N[C@@H](C)C(=O)N[C@@H](CO)C(=O)N[C@@H](CCC(=O)O)C(=O)N[C@@H](CC(C)C)C(=O)N[C@@H](CO)C(=O)N[C@H](C(=O)N[C@@H](C)C(=O)N[C@@H](C)C(=O)N[C@@H](CC(C)C)C(=O)NCC(=O)N[C@@H](CCCNC(=N)N)C(=O)N[C@@H](CC(C)C)C(=O)N[C@@H](CO)C(=O)N[C@@H](C)C(=O)N[C@@H](CCC(=O)O)C(=O)N[C@@H](CC(C)C)C(=O)N[C@@H](Cc1c[nH]cn1)C(=O)N[C@@H](CCC(=O)O)C(=O)N[C@@H](CC(C)C)C(=O)N[C@@H](C)C(=O)N[C@H](C(=O)N[C@@H](CC(C)C)C(=O)N1CCC[C@H]1C(=O)N[C@@H](CCCNC(=N)N)C(=O)N[C@H](C(=O)N[C@@H](CCC(=O)O)C(=O)N[C@H](C(=O)NCC(=O)N[C@@H](CO)C(=O)NCC(=O)N[C@@H](CO)C(=O)N1CCC[C@H]1C(N)=O)[C@@H](C)O)[C@@H](C)O)[C@@H](C)O)[C@@H](C)O)C(C)C [Compound 0056]	41.4	120	–	–
CC[C@H](C)[C@H](NC(=O)[C@H](Cc1ccccc1)NC(=O)[C@H](CCC(=O)O)NC(=O)[C@H](CCCCNC(=O)COCCOCCNC(=O)COCCOCCNC(=O)CC[C@H](NC(=O)CCCCCCCCCCCCCCCCC(=O)O)C(=O)O)NC(=O)[C@H](C)NC(=O)[C@H](C)NC(=O)[C@H](CCC(N)=O)NC(=O)CNC(=O)[C@H](CCC(=O)O)NC(=O)[C@H](CC(C)C)NC(=O)[C@H](Cc1ccc(O)cc1)NC(=O)[C@H](CO)NC(=O)[C@H](CO)NC(=O)[C@@H](NC(=O)[C@H](CC(=O)O)NC(=O)[C@H](CO)NC(=O)[C@@H](NC(=O)[C@H](Cc1ccccc1)NC(=O)[C@@H](NC(=O)CNC(=O)[C@H](CCC(=O)O)NC(=O)C(C)(C)NC(=O)[C@@H](N)Cc1c[nH]cn1)[C@@H](C)O)[C@@H](C)O)C(C)C)C(=O)N[C@@H](C)C(=O)N[C@@H](Cc1c[nH]c2ccccc12)C(=O)N[C@@H](CC(C)C)C(=O)N[C@H](C(=O)N[C@@H](CCCNC(=N)N)C(=O)NCC(=O)N[C@@H](CCCNC(=N)N)C(=O)NCC(=O)NCC(=O)N[C@@H](CCC(N)=O)C(=O)N[C@@H](CCC(=O)O)C(=O)N[C@@H](CCCCNC(=O)COCCOCCNC(=O)COCCOCCNC(=O)CC[C@H](NC(=O)CCCCCCCCCCCCCCCCC(=O)O)C(=O)O)C(=O)NCC(=O)N[C@@H](CCC(N)=O)C(=O)N[C@@H](CCC(=O)O)C(=O)N1CCC[C@H]1C(=O)N[C@@H](CCC(=O)O)C(=O)N[C@@H](C)C(=O)N[C@@H](CO)C(=O)N[C@@H](CCC(=O)O)C(=O)N[C@@H](CC(C)C)C(=O)N[C@@H](CO)C(=O)N[C@H](C(=O)N[C@@H](C)C(=O)N[C@@H](C)C(=O)N[C@@H](CC(C)C)C(=O)NCC(=O)N[C@@H](CCCNC(=N)N)C(=O)N[C@@H](CC(C)C)C(=O)N[C@@H](CO)C(=O)N[C@@H](C)C(=O)N[C@@H](CCC(=O)O)C(=O)N[C@@H](CC(C)C)C(=O)N[C@@H](Cc1c[nH]cn1)C(=O)N[C@@H](CCC(=O)O)C(=O)N[C@@H](CC(C)C)C(=O)N[C@@H](C)C(=O)N[C@H](C(=O)N[C@@H](CC(C)C)C(=O)N1CCC[C@H]1C(=O)N[C@@H](CCCNC(=N)N)C(=O)N[C@H](C(=O)N[C@@H](CCC(=O)O)C(=O)N[C@H](C(=O)NCC(=O)N[C@@H](CO)C(=O)NCC(=O)N[C@@H](CO)C(=O)N1CCC[C@H]1C(N)=O)[C@@H](C)O)[C@@H](C)O)[C@@H](C)O)[C@@H](C)O)C(C)C [Compound 0057]	59	165	–	–
CC[C@H](C)[C@H](NC(=O)[C@H](Cc1ccccc1)NC(=O)[C@H](CCC(=O)O)NC(=O)[C@H](CCCCNC(=O)COCCOCCNC(=O)COCCOCCNC(=O)CC[C@H](NC(=O)CCCCCCCCCCCCCCCCC(=O)O)C(=O)O)NC(=O)[C@H](C)NC(=O)[C@H](C)NC(=O)[C@H](CCC(N)=O)NC(=O)CNC(=O)[C@H](CCC(=O)O)NC(=O)[C@H](CC(C)C)NC(=O)[C@H](Cc1ccc(O)cc1)NC(=O)[C@H](CO)NC(=O)[C@H](CO)NC(=O)[C@@H](NC(=O)[C@H](CC(=O)O)NC(=O)[C@H](CO)NC(=O)[C@@H](NC(=O)[C@H](Cc1ccccc1)NC(=O)[C@@H](NC(=O)CNC(=O)[C@H](CCC(=O)O)NC(=O)C(C)(C)NC(=O)[C@@H](N)Cc1c[nH]cn1)[C@@H](C)O)[C@@H](C)O)C(C)C)C(=O)N[C@@H](C)C(=O)N[C@@H](Cc1c[nH]c2ccccc12)C(=O)N[C@@H](CC(C)C)C(=O)N[C@H](C(=O)N[C@@H](CCCNC(=N)N)C(=O)NCC(=O)N[C@@H](CCCNC(=N)N)C(=O)NCC(=O)NCC(=O)N[C@@H](CCC(N)=O)C(=O)N[C@@H](CCC(=O)O)C(=O)N1CCC[C@H]1C(=O)NCC(=O)N[C@@H](CCC(N)=O)C(=O)N[C@@H](CCC(=O)O)C(=O)N1CCC[C@H]1C(=O)N[C@@H](CCCCNC(=O)COCCOCCNC(=O)COCCOCCNC(=O)CC[C@H](NC(=O)CCCCCCCCCCCCCCCCC(=O)O)C(=O)O)C(=O)N[C@@H](CCC(=O)O)C(=O)N[C@@H](C)C(=O)N[C@@H](CO)C(=O)N[C@@H](CCC(=O)O)C(=O)N[C@@H](CC(C)C)C(=O)N[C@@H](CO)C(=O)N[C@H](C(=O)N[C@@H](C)C(=O)N[C@@H](C)C(=O)N[C@@H](CC(C)C)C(=O)NCC(=O)N[C@@H](CCCNC(=N)N)C(=O)N[C@@H](CC(C)C)C(=O)N[C@@H](CO)C(=O)N[C@@H](C)C(=O)N[C@@H](CCC(=O)O)C(=O)N[C@@H](CC(C)C)C(=O)N[C@@H](Cc1c[nH]cn1)C(=O)N[C@@H](CCC(=O)O)C(=O)N[C@@H](CC(C)C)C(=O)N[C@@H](C)C(=O)N[C@H](C(=O)N[C@@H](CC(C)C)C(=O)N1CCC[C@H]1C(=O)N[C@@H](CCCNC(=N)N)C(=O)N[C@H](C(=O)N[C@@H](CCC(=O)O)C(=O)N[C@H](C(=O)NCC(=O)N[C@@H](CO)C(=O)NCC(=O)N[C@@H](CO)C(=O)N1CCC[C@H]1C(N)=O)[C@@H](C)O)[C@@H](C)O)[C@@H](C)O)[C@@H](C)O)C(C)C [Compound 0071]	69.4	159	–	–
CC[C@H](C)[C@H](NC(=O)[C@H](Cc1ccccc1)NC(=O)[C@H](CCC(=O)O)NC(=O)[C@H](CCCCNC(=O)COCCOCCNC(=O)COCCOCCNC(=O)CC[C@H](NC(=O)CCCCCCCCCCCCCCC(=O)O)C(=O)O)NC(=O)[C@H](C)NC(=O)[C@H](C)NC(=O)[C@H](CCC(N)=O)NC(=O)CNC(=O)[C@H](CCC(=O)O)NC(=O)[C@H](CC(C)C)NC(=O)[C@H](Cc1ccc(O)cc1)NC(=O)[C@H](CO)NC(=O)[C@H](CO)NC(=O)[C@@H](NC(=O)[C@H](CC(=O)O)NC(=O)[C@H](CO)NC(=O)[C@@H](NC(=O)[C@H](Cc1ccccc1)NC(=O)[C@@H](NC(=O)CNC(=O)[C@H](CCC(=O)O)NC(=O)C(C)(C)NC(=O)[C@@H](N)Cc1c[nH]cn1)[C@@H](C)O)[C@@H](C)O)C(C)C)C(=O)N[C@@H](C)C(=O)N[C@@H](Cc1c[nH]c2ccccc12)C(=O)N[C@@H](CC(C)C)C(=O)N[C@H](C(=O)N[C@@H](CCCNC(=N)N)C(=O)NCC(=O)N[C@@H](CCCCNC(=O)COCCOCCNC(=O)COCCOCCNC(=O)CC[C@H](NC(=O)CCCCCCCCCCCCCCC(=O)O)C(=O)O)C(=O)NCC(=O)NCC(=O)NCC(=O)N[C@@H](CCC(=O)O)C(=O)N[C@@H](C)C(=O)N[C@@H](CO)C(=O)N[C@@H](CCC(=O)O)C(=O)N[C@@H](CC(C)C)C(=O)N[C@@H](CO)C(=O)N[C@H](C(=O)N[C@@H](C)C(=O)N[C@@H](C)C(=O)N[C@@H](CC(C)C)C(=O)NCC(=O)N[C@@H](CCCNC(=N)N)C(=O)N[C@@H](CC(C)C)C(=O)N[C@@H](CO)C(=O)N[C@@H](C)C(=O)N[C@@H](CCC(=O)O)C(=O)N[C@@H](CC(C)C)C(=O)N[C@@H](Cc1c[nH]cn1)C(=O)N[C@@H](CCC(=O)O)C(=O)N[C@@H](CC(C)C)C(=O)N[C@@H](C)C(=O)N[C@H](C(=O)N[C@@H](CC(C)C)C(=O)N1CCC[C@H]1C(=O)N[C@@H](CCCNC(=N)N)C(=O)N[C@H](C(=O)N[C@@H](CCC(=O)O)C(=O)N[C@H](C(=O)NCC(=O)N[C@@H](CO)C(=O)NCC(=O)N[C@@H](CO)C(=O)N1CCC[C@H]1C(N)=O)[C@@H](C)O)[C@@H](C)O)[C@@H](C)O)[C@@H](C)O)C(C)C [Compound 0075]	–	–	84.5	43.9
